In experiment [1] the target is T1, Retinoic acid receptor alpha (Homo sapiens, UniProt P10276).
T1 sequence (P10276 whole entry): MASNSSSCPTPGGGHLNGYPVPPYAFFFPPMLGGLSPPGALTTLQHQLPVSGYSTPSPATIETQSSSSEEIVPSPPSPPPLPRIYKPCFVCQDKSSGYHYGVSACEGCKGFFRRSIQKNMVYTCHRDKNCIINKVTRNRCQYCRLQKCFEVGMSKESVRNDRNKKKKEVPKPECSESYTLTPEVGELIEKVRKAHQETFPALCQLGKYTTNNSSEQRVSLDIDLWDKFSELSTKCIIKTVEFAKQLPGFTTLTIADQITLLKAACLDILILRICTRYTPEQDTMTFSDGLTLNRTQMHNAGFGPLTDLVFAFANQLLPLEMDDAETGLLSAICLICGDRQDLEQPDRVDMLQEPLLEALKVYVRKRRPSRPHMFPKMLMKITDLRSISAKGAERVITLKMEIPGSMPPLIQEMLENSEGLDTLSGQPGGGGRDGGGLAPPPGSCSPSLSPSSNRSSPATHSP
The experiment can be described thus: Ability to displace 3[H](all-E)-retinoic acid (5 nM) from alpha retinoic acid receptor (alpha RAR) using transactivation assay.

Experiment [2] concerns the target T2, Retinoic acid receptor gamma (Homo sapiens, UniProt P13631).
T2 sequence (P13631 whole entry): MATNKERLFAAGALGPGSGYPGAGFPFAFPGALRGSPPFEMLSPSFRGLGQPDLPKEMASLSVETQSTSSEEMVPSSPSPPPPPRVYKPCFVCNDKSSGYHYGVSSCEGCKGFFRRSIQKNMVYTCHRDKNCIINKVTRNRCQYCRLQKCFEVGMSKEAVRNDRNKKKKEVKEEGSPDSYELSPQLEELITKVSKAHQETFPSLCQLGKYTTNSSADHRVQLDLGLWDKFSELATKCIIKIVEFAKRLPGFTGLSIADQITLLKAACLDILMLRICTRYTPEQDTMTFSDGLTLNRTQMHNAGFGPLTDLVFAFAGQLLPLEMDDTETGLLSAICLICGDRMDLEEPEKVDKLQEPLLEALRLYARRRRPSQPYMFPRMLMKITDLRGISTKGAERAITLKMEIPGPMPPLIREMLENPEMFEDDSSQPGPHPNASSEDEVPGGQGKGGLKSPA
The experiment is described as follows: Ability to displace 3[H](all-E)-retinoic acid (5 nM) from Retinoic acid receptor gamma using transactivation assay.

Experiment [3] deals with T3, Retinoic acid receptor beta (Homo sapiens, UniProt P10826).
T3 sequence (P10826 whole entry): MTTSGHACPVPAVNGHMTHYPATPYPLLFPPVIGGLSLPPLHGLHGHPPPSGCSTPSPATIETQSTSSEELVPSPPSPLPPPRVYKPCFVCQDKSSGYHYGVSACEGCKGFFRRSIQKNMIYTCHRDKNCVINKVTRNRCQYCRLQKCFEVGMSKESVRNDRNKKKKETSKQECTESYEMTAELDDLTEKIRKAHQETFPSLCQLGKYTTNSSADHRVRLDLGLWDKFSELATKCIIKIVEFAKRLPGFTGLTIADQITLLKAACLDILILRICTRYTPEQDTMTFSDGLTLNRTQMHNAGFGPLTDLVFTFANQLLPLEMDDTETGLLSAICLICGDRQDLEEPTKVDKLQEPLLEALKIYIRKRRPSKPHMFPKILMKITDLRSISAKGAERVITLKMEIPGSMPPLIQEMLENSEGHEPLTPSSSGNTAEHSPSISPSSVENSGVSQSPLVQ
The experiment is described as follows: Ability to displace 3[H](all-E)-retinoic acid (5 nM) from beta retinoic acid receptor (beta RAR) using transactivation assay.

Data on 15 molecules can be found in ChEMBL document CHEMBL1132682, “High affinity retinoic acid receptor antagonists: analogs of AGN 193109” (Bioorg Med Chem Lett, 1999).

`CC1(C)CC=C(c2ccc(F)cc2)c2cc(C#Cc3ccc(C(=O)O)cc3)ccc21`: the Kd in experiment [1] turned out to be 85 nM; in experiment [2] it was 82 nM; in experiment [3], 52 nM.
In the same order, the values of `Cc1cccc(C2=CCC(C)(C)c3ccc(C#Cc4ccc(C(=O)O)cc4)cc32)c1` are 276 nM, 67 nM and 51 nM.
In the same order, the values of `CC(C)c1ccc(C2=CCC(C)(C)c3ccc(C#Cc4ccc(C(=O)O)cc4)cc32)cc1` are 90 nM, 171 nM and 11 nM.
In the same order, the values of `COc1ccc(C2=CCC(C)(C)c3ccc(C#Cc4ccc(C(=O)O)cc4)cc32)cc1` are 60 nM, 36 nM and 16 nM.
Regarding `CC1(C)CC=C(c2ccc(C(F)(F)F)cc2)c2cc(C#Cc3ccc(C(=O)O)cc3)ccc21`, the Kd is 44 nM in experiment [1], 57 nM in experiment [2] and 29 nM in experiment [3].
In the same order, the values of `CC(C)(C)c1ccc(C2=CCC(C)(C)c3ccc(C#Cc4ccc(C(=O)O)cc4)cc32)cc1` are 178 nM, 94 nM and 21 nM.
On the same counts, the results for `CC1(C)CC=C(c2ccc(C#N)cc2)c2cc(C#Cc3ccc(C(=O)O)cc3)ccc21` are 38 nM, 51 nM and 14 nM.
In the same order, the values of `CC1(C)CC=C(c2ccc(Cl)cc2)c2cc(C#Cc3ccc(C(=O)O)cc3)ccc21` are 58 nM, 27 nM and 18 nM.
As to `Cc1ccc(C2=CCC(C)(C)c3ccc(C#Cc4ccc(C(=O)O)cc4)cc32)cc1`, the figures for the dissociation constant (Kd) in experiment [1], in experiment [2] and in experiment [3] were 16 nM, 7 nM and 7 nM, respectively.
With `CC1(C)CC=C(c2ccccc2)c2cc(C#Cc3ccc(C(=O)O)cc3)ccc21`, the results for the dissociation constant Kd in experiment [1], in experiment [2] and in experiment [3] were 147 nM, 42 nM and 33 nM, respectively.
On the same counts, the results for `Cc1ccccc1C1=CCC(C)(C)c2ccc(C#Cc3ccc(C(=O)O)cc3)cc21` are 103 nM, 35 nM and 29 nM.
On the same counts, the results for `CC1(C)CC=C(c2cccc(O)c2)c2cc(C#Cc3ccc(C(=O)O)cc3)ccc21` are 919 nM, 254 nM and 162 nM.
Regarding `Cc1cc(C)cc(C2=CCC(C)(C)c3ccc(C#Cc4ccc(C(=O)O)cc4)cc32)c1`, the dissociation constant (Kd) in experiment [1] worked out at 1050 nM; in experiment [2], 408 nM; in experiment [3], 274 nM.
On the same counts, the results for `CC1(C)CC=C(c2ccc(O)cc2)c2cc(C#Cc3ccc(C(=O)O)cc3)ccc21` are 229 nM, 98 nM and 72 nM.
In the same order, the values of `CCc1ccc(C2=CCC(C)(C)c3ccc(C#Cc4ccc(C(=O)O)cc4)cc32)cc1` are 40 nM, 19 nM and 10 nM.
